In brackets after ≈: the same amount, converted by molar mass. Numbered stars: 1 amine (or outer) side, 2 acyl side, 3 side chain; on linkers, the order of the positions; unused ones are H or OH. Bridge positions count the residues as written; N and C are the ends. Square brackets hold non-standard residues; d marks the D form. Peptide text beside a SMILES is read from it. * marks the point of attachment. Orn(4R-OH,5R-OH) = O=C([C@H](C[C@@H](O)[C@@H](O)N[*:3])N[*:1])[*:2]; hTyr(3S-OH,4S-OH) = N[C@H](C(=O)O)[C@H](O)[C@@H](O)c1ccc(O)cc1; X16 = COC(=O)CCCCCNC(=O)C[C@@H](O)[C@H](N[*:1])C(=O)[*:2]; X8 = O=C(O)CCCCCNC(=O)C[C@@H](O)[C@H](N[*:1])C(=O)[*:2]; Orn(4R-OH) = O=C([C@H](C[C@@H](O)CN[*:3])N[*:1])[*:2]; X15 = NCCCCCCNC(=O)C[C@@H](O)[C@H](N[*:1])C(=O)[*:2]; X6 = C[N+](C)(C)CC[C@@H](O)[C@H](N[*:1])C(=O)[*:2]; hTyr(3R-OH) = N[C@H](C(=O)O)[C@H](O)Cc1ccc(O)cc1; X14 = NNC(=O)C[C@@H](O)[C@H](N[*:1])C(=O)[*:2]; X5 = NC(N)=NCC[C@@H](O)[C@H](N[*:1])C(=O)[*:2]; X3 = O=C(C[C@@H](O)[C@H](N[*:1])C(=O)[*:2])NO; Gln(3R-OH) = NC(=O)C[C@@H](O)[C@H](N)C(=O)O; X13 = CNCC[C@@H](O)[C@H](N[*:1])C(=O)[*:2]; X17 = O=C([C@@H](N[*:1])[C@H](O)CCO)[*:2]; X9 = N#CC[C@@H](O)[C@H](N[*:1])C(=O)[*:2]; Orn(3R-OH) = NCC[C@@H](O)[C@H](N)C(=O)O; Pro(3S-OH) = O=C(O)[C@H]1NCC[C@@H]1O; Hyp = O=C(O)[C@@H]1C[C@@H](O)CN1; X1 = CCC(C)CC(C)CCCCCCCCC(=O)*
What was measured:
Beta-1,3-glucan synthase = Beta-1,3-glucan synthase (Candida albicans, UniProt O13428); experiment: Tested for inhibition of Beta-1,3-glucan synthase using a crude membrane of Candida albicans (MY 1208).
Beta-1,3-glucan synthase, sequence (O13428 whole entry): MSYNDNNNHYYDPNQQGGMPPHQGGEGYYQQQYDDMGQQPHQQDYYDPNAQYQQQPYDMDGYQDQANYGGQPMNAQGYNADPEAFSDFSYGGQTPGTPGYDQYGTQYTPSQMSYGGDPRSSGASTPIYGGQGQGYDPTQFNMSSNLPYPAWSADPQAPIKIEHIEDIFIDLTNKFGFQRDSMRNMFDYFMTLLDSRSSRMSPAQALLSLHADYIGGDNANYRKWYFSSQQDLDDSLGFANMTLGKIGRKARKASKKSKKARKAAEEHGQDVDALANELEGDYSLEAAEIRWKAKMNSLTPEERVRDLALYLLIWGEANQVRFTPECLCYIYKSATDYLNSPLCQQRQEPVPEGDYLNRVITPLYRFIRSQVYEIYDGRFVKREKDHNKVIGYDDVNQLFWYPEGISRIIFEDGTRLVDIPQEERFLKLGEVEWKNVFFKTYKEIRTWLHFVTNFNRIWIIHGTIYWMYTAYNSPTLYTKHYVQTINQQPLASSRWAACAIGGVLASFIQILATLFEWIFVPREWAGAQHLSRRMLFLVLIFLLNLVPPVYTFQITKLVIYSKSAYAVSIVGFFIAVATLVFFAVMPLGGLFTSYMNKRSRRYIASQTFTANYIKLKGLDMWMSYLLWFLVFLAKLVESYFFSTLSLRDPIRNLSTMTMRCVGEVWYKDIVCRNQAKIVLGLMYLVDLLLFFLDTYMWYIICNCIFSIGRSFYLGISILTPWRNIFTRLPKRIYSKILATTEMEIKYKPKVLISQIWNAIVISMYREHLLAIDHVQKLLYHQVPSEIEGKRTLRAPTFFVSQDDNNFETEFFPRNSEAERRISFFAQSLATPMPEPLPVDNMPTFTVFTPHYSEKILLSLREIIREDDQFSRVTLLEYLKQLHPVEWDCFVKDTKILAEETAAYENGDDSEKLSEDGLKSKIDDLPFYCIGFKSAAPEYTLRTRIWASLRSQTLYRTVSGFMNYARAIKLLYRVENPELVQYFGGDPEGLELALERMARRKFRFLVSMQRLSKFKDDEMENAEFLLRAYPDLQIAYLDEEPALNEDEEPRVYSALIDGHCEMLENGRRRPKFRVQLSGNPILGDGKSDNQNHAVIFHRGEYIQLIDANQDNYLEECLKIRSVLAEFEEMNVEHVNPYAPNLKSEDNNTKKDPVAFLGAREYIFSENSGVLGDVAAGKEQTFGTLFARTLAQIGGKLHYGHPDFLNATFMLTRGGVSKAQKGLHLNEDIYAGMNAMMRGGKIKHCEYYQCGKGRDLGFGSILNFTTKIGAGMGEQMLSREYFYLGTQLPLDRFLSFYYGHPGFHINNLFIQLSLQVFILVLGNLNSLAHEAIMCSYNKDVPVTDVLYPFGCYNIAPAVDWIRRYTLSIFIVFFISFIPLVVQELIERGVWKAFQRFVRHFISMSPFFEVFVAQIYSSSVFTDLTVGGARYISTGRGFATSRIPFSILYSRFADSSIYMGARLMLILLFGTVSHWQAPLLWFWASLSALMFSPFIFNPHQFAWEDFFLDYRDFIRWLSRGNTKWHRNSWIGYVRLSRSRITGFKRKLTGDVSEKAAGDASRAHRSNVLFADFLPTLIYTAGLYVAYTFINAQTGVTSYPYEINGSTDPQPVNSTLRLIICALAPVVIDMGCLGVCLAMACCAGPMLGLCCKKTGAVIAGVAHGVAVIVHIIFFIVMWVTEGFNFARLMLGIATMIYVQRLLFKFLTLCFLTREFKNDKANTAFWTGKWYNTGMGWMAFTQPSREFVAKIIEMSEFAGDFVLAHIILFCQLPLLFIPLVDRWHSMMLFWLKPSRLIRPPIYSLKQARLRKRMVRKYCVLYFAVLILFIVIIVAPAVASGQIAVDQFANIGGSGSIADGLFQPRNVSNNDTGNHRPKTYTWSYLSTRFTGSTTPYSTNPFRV

Candida parapsilosis = experiment: In vitro Fungicidal activity (MFC) against Candida parapsilosis (MY 1010).; assay type: functional; conditions: Lodderomyces parapsilosis
Candida albicans = experiment: In vitro Fungicidal activity (MFC) against Candida albicans (MY 1055).; assay type: functional
[1] = In vivo anti-Candida activity was determined in a mouse model of disseminated candidiasis (TOKA).; assay type: functional

Row | Compound | IC50 (Beta-1,3-glucan synthase) [nM] | MFC (Candida parapsilosis) [µg/mL] | MFC (Candida albicans) [µg/mL] | ED99.9 [1] [mg/kg]
1 | CCC(C)CC(C)CCCCCCCCC(=O)N[C@H]1C[C@@H](O)[C@@H](O)NC(=O)[C@@H]2[C@@H](O)CCN2C(=O)[C@H]([C@H](O)CCN=C(N)N)NC(=O)[C@H]([C@H](O)[C@@H](O)c2ccc(O)cc2)NC(=O)[C@@H]2C[C@@H](O)CN2C(=O)[C@H]([C@@H](C)O)NC1=O (stereo partly drawn) (X1-[Orn(4R-OH,5R-OH)]T[Hyp][hTyr(3S-OH,4S-OH)][X5][Pro(3S-OH)]; lactam 1-C) | 7 | 0.5 (≈ 0.457 µM) | < 0.06 | 1.5
2 | CCC(C)CC(C)CCCCCCCCC(=O)N[C@H]1C[C@@H](O)CNC(=O)[C@@H]2[C@@H](O)CCN2C(=O)[C@H]([C@H](O)CC(=O)NO)NC(=O)[C@H]([C@H](O)Cc2ccc(O)cc2)NC(=O)[C@@H]2C[C@@H](O)CN2C(=O)[C@H]([C@@H](C)O)NC1=O (stereo partly drawn) (X1-[Orn(4R-OH)]T[Hyp][hTyr(3R-OH)][X3][Pro(3S-OH)]; lactam 1-C) | 80 | 4 (≈ 3.81 µM) | 0.25 (≈ 0.238 µM) | 6
3 | CCC(C)CC(C)CCCCCCCCC(=O)N[C@H]1C[C@@H](O)[C@@H](O)NC(=O)[C@@H]2[C@@H](O)CCN2C(=O)[C@H]([C@H](O)CCN)NC(=O)[C@H]([C@H](O)[C@@H](O)c2ccc(O)cc2)NC(=O)[C@@H]2C[C@@H](O)CN2C(=O)[C@H]([C@@H](C)O)NC1=O (stereo partly drawn) (X1-[Orn(4R-OH,5R-OH)]T[Hyp][hTyr(3S-OH,4S-OH)][Orn(3R-OH)][Pro(3S-OH)]; lactam 1-C) | 10 | 0.5 (≈ 0.476 µM) | < 0.06 | 0.375
4 | CCC(C)CC(C)CCCCCCCCC(=O)N[C@H]1C[C@@H](O)CNC(=O)[C@@H]2[C@@H](O)CCN2C(=O)[C@H]([C@H](O)CC(=O)NCCCCCC(=O)OC)NC(=O)[C@H]([C@H](O)Cc2ccc(O)cc2)NC(=O)[C@@H]2C[C@@H](O)CN2C(=O)[C@H]([C@@H](C)O)NC1=O (stereo partly drawn) (X1-[Orn(4R-OH)]T[Hyp][hTyr(3R-OH)][X16][Pro(3S-OH)]; lactam 1-C) | 250 | > 128 | 4 (≈ 3.44 µM) | 
5 | CCC(C)CC(C)CCCCCCCCC(=O)N[C@H]1C[C@@H](O)[C@@H](O)NC(=O)[C@@H]2[C@@H](O)CCN2C(=O)[C@H]([C@H](O)CCNC)NC(=O)[C@H]([C@H](O)[C@@H](O)c2ccc(O)cc2)NC(=O)[C@@H]2C[C@@H](O)CN2C(=O)[C@H]([C@@H](C)O)NC1=O (stereo partly drawn) (X1-[Orn(4R-OH,5R-OH)]T[Hyp][hTyr(3S-OH,4S-OH)][X13][Pro(3S-OH)]; lactam 1-C) | 7 | 2 (≈ 1.88 µM) | 2 (≈ 1.88 µM) | 0.375
6 | CCC(C)CC(C)CCCCCCCCC(=O)N[C@H]1C[C@@H](O)[C@@H](O)NC(=O)[C@@H]2[C@@H](O)CCN2C(=O)[C@H]([C@H](O)CC[N+](C)(C)C)NC(=O)[C@H]([C@H](O)[C@@H](O)c2ccc(O)cc2)NC(=O)[C@@H]2C[C@@H](O)CN2C(=O)[C@H]([C@@H](C)O)NC1=O (stereo partly drawn) (X1-[Orn(4R-OH,5R-OH)]T[Hyp][hTyr(3S-OH,4S-OH)][X6][Pro(3S-OH)]; lactam 1-C) | 9 | 0.5 | 0.125 | 0.375
7 | CCC(C)CC(C)CCCCCCCCC(=O)N[C@H]1C[C@@H](O)[C@@H](O)NC(=O)[C@@H]2[C@@H](O)CCN2C(=O)[C@H]([C@H](O)CC(N)=O)NC(=O)[C@H]([C@H](O)[C@@H](O)c2ccc(O)cc2)NC(=O)[C@@H]2C[C@@H](O)CN2C(=O)[C@H]([C@@H](C)O)NC1=O (stereo partly drawn) (X1-[Orn(4R-OH,5R-OH)]T[Hyp][hTyr(3S-OH,4S-OH)][Gln(3R-OH)][Pro(3S-OH)]; lactam 1-C) |  | 1 (≈ 0.939 µM) | 0.25 (≈ 0.235 µM) | 6
8 | CCC(C)CC(C)CCCCCCCCC(=O)N[C@H]1C[C@@H](O)CNC(=O)[C@@H]2[C@@H](O)CCN2C(=O)[C@H]([C@H](O)CC(=O)NN)NC(=O)[C@H]([C@H](O)Cc2ccc(O)cc2)NC(=O)[C@@H]2C[C@@H](O)CN2C(=O)[C@H]([C@@H](C)O)NC1=O (stereo partly drawn) (X1-[Orn(4R-OH)]T[Hyp][hTyr(3R-OH)][X14][Pro(3S-OH)]; lactam 1-C) | 110 | 8 (≈ 7.63 µM) | 4 (≈ 3.82 µM) | 
9 | CCC(C)CC(C)CCCCCCCCC(=O)N[C@H]1C[C@@H](O)[C@@H](O)NC(=O)[C@@H]2[C@@H](O)CCN2C(=O)[C@H]([C@H](O)CC#N)NC(=O)[C@H]([C@H](O)[C@@H](O)c2ccc(O)cc2)NC(=O)[C@@H]2C[C@@H](O)CN2C(=O)[C@H]([C@@H](C)O)NC1=O (stereo partly drawn) (X1-[Orn(4R-OH,5R-OH)]T[Hyp][hTyr(3S-OH,4S-OH)][X9][Pro(3S-OH)]; lactam 1-C) | 100 | 2 (≈ 1.91 µM) | 2 (≈ 1.91 µM) | 
10 | CCC(C)CC(C)CCCCCCCCC(=O)N[C@H]1C[C@@H](O)CNC(=O)[C@@H]2[C@@H](O)CCN2C(=O)[C@H]([C@H](O)CCO)NC(=O)[C@H]([C@H](O)Cc2ccc(O)cc2)NC(=O)[C@@H]2C[C@@H](O)CN2C(=O)[C@H]([C@@H](C)O)NC1=O (stereo partly drawn) (X1-[Orn(4R-OH)]T[Hyp][hTyr(3R-OH)][X17][Pro(3S-OH)]; lactam 1-C) | 200 | 8 (≈ 7.84 µM) | 1 (≈ 0.98 µM) | 
11 | CCC(C)CC(C)CCCCCCCCC(=O)N[C@H]1C[C@@H](O)CNC(=O)[C@@H]2[C@@H](O)CCN2C(=O)[C@H]([C@H](O)CC(=O)NCCCCCCN)NC(=O)[C@H]([C@H](O)Cc2ccc(O)cc2)NC(=O)[C@@H]2C[C@@H](O)CN2C(=O)[C@H]([C@@H](C)O)NC1=O (stereo partly drawn) (X1-[Orn(4R-OH)]T[Hyp][hTyr(3R-OH)][X15][Pro(3S-OH)]; lactam 1-C) | 38 |  | 0.5 (≈ 0.442 µM) | >6
12 | CCC(C)CC(C)CCCCCCCCC(=O)N[C@H]1C[C@@H](O)CNC(=O)[C@@H]2[C@@H](O)CCN2C(=O)[C@H]([C@H](O)CC(=O)NCCCCCC(=O)O)NC(=O)[C@H]([C@H](O)Cc2ccc(O)cc2)NC(=O)[C@@H]2C[C@@H](O)CN2C(=O)[C@H]([C@@H](C)O)NC1=O (stereo partly drawn) (X1-[Orn(4R-OH)]T[Hyp][hTyr(3R-OH)][X8][Pro(3S-OH)]; lactam 1-C) | 900 | 64 (≈ 55.8 µM) | 2 (≈ 1.74 µM) | 
13 | CCC(C)CC(C)CCCCCCCCC(=O)N[C@H]1C[C@@H](O)CNC(=O)[C@@H]2[C@@H](O)CCN2C(=O)[C@H]([C@H](O)CC#N)NC(=O)[C@H]([C@H](O)Cc2ccc(O)cc2)NC(=O)[C@@H]2C[C@@H](O)CN2C(=O)[C@H]([C@@H](C)O)NC1=O (stereo partly drawn) (X1-[Orn(4R-OH)]T[Hyp][hTyr(3R-OH)][X9][Pro(3S-OH)]; lactam 1-C) | 100 | 4 (≈ 3.94 µM) | 1 (≈ 0.985 µM) | 
14 | CCC(C)CC(C)CCCCCCCCC(=O)N[C@H]1C[C@@H](O)CNC(=O)[C@@H]2[C@@H](O)CCN2C(=O)[C@H]([C@H](O)CCN)NC(=O)[C@H]([C@H](O)Cc2ccc(O)cc2)NC(=O)[C@@H]2C[C@@H](O)CN2C(=O)[C@H]([C@@H](C)O)NC1=O (stereo partly drawn) (X1-[Orn(4R-OH)]T[Hyp][hTyr(3R-OH)][Orn(3R-OH)][Pro(3S-OH)]; lactam 1-C) | 10 |  | 0.125 (≈ 0.123 µM) | 1.5

From ChEMBL document CHEMBL1128045, “Antifungal lipopeptides: Structure-activity relationships of 3-hydroxyglutamine-modified pneumocandin B0 derivatives” (Bioorg Med Chem Lett, 1995)
